US12390405B2, “Personal care compositions” (Colgate-Palmolive Company, priority 2021, dated 2025)

Columns and labels:
[1] = tested on: human skin (leftover from abdominal plastic surgery); test: Wound healing on ex vivo human skin
Protocol: The ability of various molecular weights of hyaluronic acid (HA) are tested to determine their respective properties relative to wound healing and repair.
In this study, human skin (leftover from abdominal plastic surgery) is used. An N=6 skin samples are used for each test condition for statistical comparison. Before treatment with test samples and positive control (Allantoin), a controlled mean wound of about 1 mm length is created on the skin by removing epidermis using a diamond spurr tip. Four microliters of test samples or Allantoin (positive control) are applied on the wound followed by incubation of the tissue for 6 days, and then harvesting of the tissues in order for hematoxylin and eosin staining for morphological analysis. The length of the wounds are measured and values are compared for statistical comparison with untreated Day 6 (self-healing of the skin in absence of any treatment).

[2] = tested on: darkly pigmented human epidermal melanocyte cell model; test: Melanin synthesis in melanocytes (NaOH solubilized melanin, 490 nm), Table 2; format: cell-based; conditions: for Change from untreated (reduction in melanin synthesis) / Melanin Synthesis: after 5 day of treatment; for Melanin Synthesis: relative to untreated (100%); for inhibits melanin synthesis: 5 day
Protocol: (§1) In order to evaluate the melanin synthesis inhibition activity of hexylresorcinol, licorice extract and the combination thereof at certain concentrations, In vitro studies are conducted on darkly pigmented human epidermal melanocyte cell model. Darkly pigmented melanocytes cells are placed on 24-well plates. As a positive control, 0.00025% hydroquinone is used. Hexylresorcinol, licorice extract, and hydroquinone solutions are prepared as follows. […] For combination treatment, 2× solutions of hexylresorcinol and licorice extract are mixed. For single treatment, 2× solutions are mixed with the equal volume of media. Test samples are listed in Table 1. • 0.5 ml of each test sample is directly applied to the 24-well plates in triplicates. After 5 day of treatment, melanocyte viability and melanin synthesis are measured. Melanin synthesis is quantified as follows. Cells are first rinsed with PBS to remove any residual solution and 200 μl NaOH is added to each cell. The plates are shaken for 4 hours to solubilize melanin produced by melanocytes. Solubilized melanin is measured by a spectrometer at 490 nm.

[3] = tested on: darkly pigmented human epidermal melanocyte cell model; test: Melanocyte viability, Alamar Blue; format: cell-based; conditions: melanocytes, after 5 day of treatment, relative to untreated (100%)
Protocol: as §1, with “Melanocyte viability” for “Melanin synthesis”, “using Alamar Blue solution, which is a nontoxic dye commonly used” for “as follows. Cells are first rinsed with PBS”, “assess cell viability.” for “remove any residual solution and 200 μl NaOH is added to each cell. The plates are shaken for 4 hours to solubilize melanin produced by melanocytes. Solubilized melanin is measured by a spectrometer at 490 nm.”

melanocytes = test: Melanin synthesis inhibition, separate assay, Table 2a; format: cell-based, human; conditions: sample concentrations per Table 2b
Protocol: In a separate assay melanin synthesis is quantified as follows. Cells are first rinsed with PBS to remove any residual solution and 200 μl NaOH is added to each cell. The plates are shaken for 4 hours to solubilize melanin produced by melanocytes. Solubilized melanin is measured by a spectrometer at 490 nm.

MelanoDerm tissues = test: Melanin synthesis inhibition in MelanoDerm tissues, separate assay, Table 3a; format: cell-based
Protocol: In a separate assay, further comparisons are made to 2% kojic acid solution, which is the industry standard for in vitro tissue testing, and market-based product that is hydroquinone free (“MB HQ Free”) but contains kojic acid and other skin brightening ingredients. In total, 31 prototypes are prepared, and 26 of those are assessed in MelanoDerm™ tissues, as described above.

SMILES	Change from untreated (reduction in melanin synthesis) [2] [%]	Melanin Synthesis [2]	Viability [3]	Melanin Synthesis Inhibition (% inhibition vs. untreated) (melanocytes) [%]	other results
NC(=O)NC1NC(=O)NC1=O (stereo not shown) [Allantoin]					Percent (%) Reduction in Wound Width Relative to the Untreated Day 6 ([1]; Day 6): 68%; Mean Wound Width Day 6 ([1]; Day 6 after four microliters applied on wound, N=6, untreated Day 6 874): 280 μm
Oc1ccc(O)cc1 [Control, hydroquinone, reference compound]	24.3	75.7% ± 0.9%	92% ± 1%	20.6	
CCCCCCc1ccc(O)cc1O [HR1, hexylresorcinol]	6.9	93.1% ± 0.7%	95% ± 3%		
CCCCCCc1ccc(O)cc1O [HR2, hexylresorcinol]	2.1	97.9% ± 2.1%	105% ± 8%		
CCCCCCc1ccc(O)cc1O [HR 1, hexylresorcinol]				10.4	
CCCCCCc1ccc(O)cc1O [HR 2, hexylresorcinol]				10.2	
CCCCCCc1ccc(O)cc1O [HR 3, hexylresorcinol]				9.3	
CCCCCCc1ccc(O)cc1O [HR 4, hexylresorcinol]				8.8	
O=c1cc(CO)occ1O [Kojic Acid, kojic acid]					Melanin Synthesis Inhibition Relative to Untreated (% inhibition) (MelanoDerm tissues): 73.51%
CCCCCCc1ccc(O)cc1O [hexylresorcinol]					inhibits melanin synthesis ([2]; 0.0001% hexylresorcinol): 2.1%; inhibits melanin synthesis ([2]; 0.00025% hexylresorcinol): 6.9%
